Results: ChEMBL document CHEMBL5316350, “Novel Pyrido[2',1':2,3]imidazo[4,5-c]quinoline Derivative Selectively Poisons Leishmania donovani Bisubunit Topoisomerase 1 to Inhibit the Antimony-Resistant Leishmania Infection in Vivo” (J Med Chem, 2023)
Activity calls are given as the source filed them. The calls are words filed in the database; no cut-off is given here.

How the values were obtained:
DNA topoisomerase I [1] = target: T1, DNA topoisomerase I (Leishmania donovani (strain BPK282A1), UniProt E9BRC0); experiment: Inhibition of Leishmania donovani Top1 assessed as relaxation of supercoiled pBluescript SK(+) DNA measured by agarose gel electrophoresis analysis
T1 sequence (E9BRC0 whole entry): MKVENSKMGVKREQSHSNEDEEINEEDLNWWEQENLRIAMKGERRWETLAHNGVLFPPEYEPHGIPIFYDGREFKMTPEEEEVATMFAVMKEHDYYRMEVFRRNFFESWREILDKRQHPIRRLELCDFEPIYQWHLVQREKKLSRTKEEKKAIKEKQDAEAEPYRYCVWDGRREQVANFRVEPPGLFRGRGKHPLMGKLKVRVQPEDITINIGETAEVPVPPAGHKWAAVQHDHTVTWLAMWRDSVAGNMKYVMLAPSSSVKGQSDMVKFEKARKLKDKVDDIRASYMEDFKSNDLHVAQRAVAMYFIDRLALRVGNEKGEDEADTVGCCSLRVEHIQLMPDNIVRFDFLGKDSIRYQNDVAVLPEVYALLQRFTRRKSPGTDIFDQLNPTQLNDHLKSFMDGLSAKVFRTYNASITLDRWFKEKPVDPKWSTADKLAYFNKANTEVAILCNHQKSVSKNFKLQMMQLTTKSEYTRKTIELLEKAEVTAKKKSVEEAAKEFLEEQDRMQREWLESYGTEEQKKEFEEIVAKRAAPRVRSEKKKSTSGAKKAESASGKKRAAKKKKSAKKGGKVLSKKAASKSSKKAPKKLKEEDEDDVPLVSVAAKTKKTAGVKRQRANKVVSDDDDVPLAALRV

Leishmania donovani [2] = experiment: Induction of apoptosis in Leishmania donovani Ag83 promastigotes assessed as increase in apoptotic cells measured at 5 uM after 1.5 hrs by Annexin V-FITC/PI staining based flow cytometric analysis; format: functional, organism-based
Leishmania donovani [3] = experiment: (§1) Antileishmanial activity against antimony resistant Leishmania donovani BHU575 promastigotes infected in BALB/c mouse assessed as reduction of amastigote burden by measuring parasite count in liver treated after 3 weeks of infection at 5 to 10 mg/kg, ip twice a week for 3 weeks by qPCR based kineto-plastid DNA; format: functional, organism-based; conditions: dose 5-10 mg/kg
Leishmania donovani [4] = experiment: as §1, with “burden” for “burden by measuring parasite count”, “Giemsa staining stamp-smear” for “qPCR”, “limiting dilution assay” for “kineto-plastid DNA”; format: functional, organism-based; conditions: dose 5-10 mg/kg
Leishmania donovani [5] = experiment: Induction of apoptosis in Leishmania donovani Ag83 promastigotes assessed as necrotic cells measured at 5 uM after 24 hrs by Annexin V-FITC/PI staining based flow cytometric analysis (reference value: 0.5%); format: functional
Leishmania donovani [6] = experiment: Induction of apoptosis in Leishmania donovani Ag83 promastigotes assessed as DNA break accumulation measured at 5 uM after 24 hrs by TUNEL staining based assay; format: functional, organism-based
Leishmania donovani [7] = experiment: (§2) Antileishmanial activity against Leishmania donovani Ag83 promastigotes infected in BALB/c mouse model of visceral leishmaniasis assessed as fold change in T-helper type 1 immunological evoke response in splenocytes by measuring increased IFN-gamma cytokine level treated after 3 weeks of infection at 5 mg/kg, ip twice a week for 3 weeks by RT-PCR analysis; format: functional
Leishmania donovani [8] = experiment: Antileishmanial activity against antimony resistant Leishmania donovani BHU575 promastigotes infected in BALB/c mouse assessed as reduction of macrophage at 10 uM measured after 96 hrs infection by propidium iodide staining analysis relative to control; format: functional; parameters: scale not given: the % may be the effect or the level left
Leishmania donovani [9] = experiment: Antileishmanial activity against Leishmania donovani Ag83 promastigotes assessed as cell viability by MTT assay; format: functional, organism-based
Leishmania donovani [10] = experiment: Induction of cell cycle arrest in Leishmania donovani Ag83 promastigotes assessed as decrease in accumulation of cells in S phase at 5 uM measured after 6 hrs by PI staining based flow cytometry (reference value: 18.1%); format: functional; parameters: scale not given: the % may be the effect or the level left
Leishmania donovani [11] = experiment: Antileishmanial activity against Leishmania donovani Ag83 promastigotes infected in BALB/c mouse assessed as reduction of amastigote burden in liver treated after 3 weeks of infection at 5 to 10 mg/kg, ip twice a week for 3 weeks by Giemsa staining stamp-smear based limiting dilution assay; format: functional, organism-based; conditions: dose 5-10 mg/kg
Leishmania donovani [12] = experiment: Antileishmanial activity against Leishmania donovani Ag83 promastigotes infected in BALB/c mouse assessed as reduction of amastigote burden by measuring parasite count in spleen treated after 3 weeks of infection at 5 to 10 mg/kg, ip twice a week for 3 weeks by qPCR based kineto-plastid DNA; format: functional, organism-based; conditions: dose 5-10 mg/kg
Leishmania donovani [13] = experiment: Antileishmanial activity against Leishmania donovani Ag83 amastigotes infected in BALB/c mouse macrophage assessed as cell viability measured after 48 hrs infection by propidium iodide staining analysis relative to control; format: functional, organism-based; conditions: Ag83, 48 h
Leishmania donovani [14] = experiment: Induction of cell cycle arrest in antimony resistant Leishmania donovani BHU575 promastigotes assessed as decrease in accumulation of cells in S phase at 5 uM measured after 24 hrs by PI staining based flow cytometry (reference value: 9.8%); format: functional; parameters: scale not given: the % may be the effect or the level left
Leishmania donovani [15] = experiment: Induction of apoptosis in […] Leishmania donovani Ag83 promastigotes assessed as DNA break accumulation measured at 5 uM after 15 mins by TUNEL staining based assay; format: functional, organism-based
MCF7 [16] = experiment: Potency index ratio of test compound IC50 to camptothecin IC50 for cytotoxicity against human MCF7 cells; format: functional
Leishmania donovani [17] = experiment: Induction of cell cycle arrest in antimony resistant Leishmania donovani BHU575 promastigotes assessed as decrease in accumulation of cells in G0/G1 phase at 5 uM measured after 24 hrs by PI staining based flow cytometry (reference value: 80.7%); format: functional; parameters: scale not given: the % may be the effect or the level left
DNA topoisomerase I [18] = target: T1, DNA topoisomerase I; experiment: Inhibition of recombinant Top1 in Leishmania donovani Ag83 whole cell extract assessed as relaxation of supercoiled pBluescript SK(+) DNA measured by agarose gel electrophoresis analysis
Leishmania donovani [19] = experiment: Stabilization of Leishmania donovani promastigotes Top1-DNA complex assessed as formation of SDS-KCl precipitable complex incubated for 110 mins by anti-BrdU staining based spectrophotometric analysis
MCF7 [20] = experiment: Induction of apoptosis in human MCF7 cells measured at 5 uM upto 24 hrs by Annexin V-FITC/PI staining based flow cytometric analysis; format: functional, cell-based
Leishmania donovani [21] = experiment: Induction of cell cycle arrest in antimony resistant Leishmania donovani BHU575 promastigotes assessed as decrease in accumulation of cells in S phase at 5 uM measured after 6 hrs by PI staining based flow cytometry (reference value: 9.8%); format: functional; parameters: scale not given: the % may be the effect or the level left
Leishmania donovani [22] = experiment: as §2, with “increase in TNF alpha” for “increased IFN-gamma”, “5 to 10” for “5”; format: functional; conditions: dose 5-10 mg/kg
Leishmania donovani [23] = experiment: Induction of cell cycle arrest in Leishmania donovani Ag83 promastigotes assessed as decrease in accumulation of cells in G0/G1 phase at 5 uM measured after 6 hrs by PI staining based flow cytometry (reference value: 65.1%); format: functional; parameters: scale not given: the % may be the effect or the level left
Leishmania donovani [24] = experiment: Induction of apoptosis in Leishmania donovani Ag83 promastigotes assessed as increase in apoptotic genomic DNA fragmentation measured at 5 uM after 6 hrs by Annexin V-FITC/PI staining based flow cytometric analysis; format: functional, organism-based
[25] = Toxicity in BALB/c mouse infected with Leishmania donovani Ag83 promastigotes assessed as change in body weight treated after 3 weeks of infection at 5 to 10 mg/kg, ip twice a week for 3 weeks; format: organism-based; conditions: in vivo, dose 5-10 mg/kg
Leishmania donovani [26] = experiment: Induction of cell cycle arrest in Leishmania donovani Ag83 promastigotes assessed as decrease in accumulation of cells in G2/M phase at 5 uM measured after 12 hrs by PI staining based flow cytometry (reference value: 15.1 %); format: functional; parameters: scale not given: the % may be the effect or the level left

Compound: COc1cc(-c2nc3ccccc3c3nc4ccccn4c23)cc(OC)c1OC
- IC50 (DNA topoisomerase I [1]): 3.75 µM
- Activity (Leishmania donovani [2]): Active
- Activity (Leishmania donovani [3]): Active
- Activity (Leishmania donovani [4]): Active
- Activity (Leishmania donovani [5]): 23.1%
- Activity (Leishmania donovani [6]): Active
- fold change (FC) (Leishmania donovani [7]): 4
- Activity (Leishmania donovani [8]): 90%
- EC50 (Leishmania donovani [9]): 2.31 µM
- Activity (Leishmania donovani [10]): 13.6%
- Activity (Leishmania donovani [11]): Active
- Activity (Leishmania donovani [12]): Active
- EC50 (Leishmania donovani [13]): 2.5 µM
- Activity (Leishmania donovani [14]): 22.3%
- Activity (Leishmania donovani [15]): inactive
- Ratio IC50 (MCF7 [16]): 90
- Activity (Leishmania donovani [17]): 38%
- IC50 (DNA topoisomerase I [18]): 6.5 µM
- Activity (Leishmania donovani [19]): Active
- Activity (MCF7 [20]): inactive
- Activity (Leishmania donovani [21]): 24.5%
- fold change (FC) (Leishmania donovani [22]): 5
- Activity (Leishmania donovani [23]): 55.3%
- Activity (Leishmania donovani [24]): Active
- Activity [25]: Non-Toxic
- Activity (Leishmania donovani [26]): 14.5%
